In US6541463B1, “Inhibitors of type 5 and type 3 17β-hydroxysteroid dehydrogenase and methods for their use” (Endorecherche, Inc., priority 1998, dated 2003):

Target: T1, estrogen receptor (Rattus norvegicus, UniProt P06211)
T1 construct: from tissue; host or cells: uterine cytosol of gonadectomized female Sprague-Dawley rats
T1 sequence (P06211 1-600): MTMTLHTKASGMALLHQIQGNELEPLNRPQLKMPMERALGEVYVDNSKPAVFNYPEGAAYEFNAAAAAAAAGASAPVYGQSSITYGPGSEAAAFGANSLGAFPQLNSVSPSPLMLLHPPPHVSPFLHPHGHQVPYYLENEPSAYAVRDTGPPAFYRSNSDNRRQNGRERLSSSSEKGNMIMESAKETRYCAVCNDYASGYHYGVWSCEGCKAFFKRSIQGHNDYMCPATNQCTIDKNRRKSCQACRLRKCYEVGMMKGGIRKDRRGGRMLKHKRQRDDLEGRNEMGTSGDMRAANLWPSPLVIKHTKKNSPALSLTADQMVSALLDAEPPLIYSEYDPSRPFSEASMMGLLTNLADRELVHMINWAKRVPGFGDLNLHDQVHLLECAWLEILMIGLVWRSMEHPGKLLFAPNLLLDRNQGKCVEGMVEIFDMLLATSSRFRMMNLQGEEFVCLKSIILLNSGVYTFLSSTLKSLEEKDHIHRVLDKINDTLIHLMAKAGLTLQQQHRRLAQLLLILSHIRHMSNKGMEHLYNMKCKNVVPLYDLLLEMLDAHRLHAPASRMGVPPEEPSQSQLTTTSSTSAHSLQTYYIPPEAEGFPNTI
Assay: Estrogen receptor (ER) assay: inhibition of [3H]E2 binding, uterine cytosol
Method: Female Sprague-Dawley rats (Crl: CD(SD)Br) weighing 200-300 g were obtained from Charles-River Inc. (St-Constant, Québec, Canada). The rats were gonadectomized under general anesthesia (Isoflurane) and killed by cervical dislocation 24 hours later. The uteri were rapidly removed, dissected free from adhering tissue and frozen on dry-ice. Uteri were kept at −80° C. until assay. All subsequent steps were performed at 0-4° C. Uteri were homogenized in 10 vol (wt/vol) of buffer A (25 mM Tris-HCI, 1.5 mM EDTA disodium salt, 10 mM α-monothioglycerol, 10% glycerol, and 10 mM sodium molybdate, pH 7.4), using a Polytron PT-10 homogenizer (Brinkman Instruments, Canada) at a setting of 5 for three periods of 10 sec, with intervals of 10 sec for cooling. The homogenate was then centrifuged at 105,000×g for 60 min in a Beckman L5-65 ultracentrifuge (Fullerton, Calif.). The protein concentration of the cytosol fraction was measured according to the method of Bradford (Anal. Biochem. 72: 248-254, 1976), using bovine serum albumin as standard.
Estrogen binding was measured using the dextran-coated charcoal adsorption technique as described previously (Asselin et al., Endocrinology, 101: 666-671, 1977; Asselin and Labrie, J. Steroid Biochem., 9: 1079-1082, 1978). Briefly, [^3H]E2 solubilized in ethanol were diluted into buffer A. Aliquots of uterine cytosol preparation (0.1 ml) were incubated with 5 nM [^3H]E2 (˜200,000 cpm, 0.1 ml) in the presence or absence of the indicated concentrations of unlabeled compounds (0.1 ml, prepared in buffer A containing 10% ethanol) for 3 h at room temperature. Unbound steroids were then separated by incubation for 15 min at 0-4° C. with 0.3 ml 0.5% Norit-A and 0.05% Dextran T-70 in buffer B (1.5 mM EDTA disodium salt, 10 mM monothioglycerol, and 10 mM Tris-HCI, pH 7.4) and centrifuged at 3,000×g for 15 min. Aliquots of the supernatant (0.3 ml) were removed for radioactivity measurement.

## CC1(C)CC[C@@]2(CC[C@H]3[C@@H]4CCc5c(cc(Br)c(O)c5Br)[C@H]4CC[C@@]32C)OC1=O [EM-1382-CS]
Table 4′, E^−6
  % Inhibition Estrogen Receptor E^−6: 3%
Table 4′, E^−8
  % Inhibition Estrogen Receptor E^−8: 0%

## CCS(=O)(=O)Oc1ccc2c(c1)CCC1C2CCC2(C)C1CCC21CCC(C)(C)C(=O)O1 (stereo not drawn) [EM-1364-CS]
Table 4′, E^−6
  % Inhibition Estrogen Receptor E^−6: 5%
Table 4′, E^−8
  % Inhibition Estrogen Receptor E^−8: 0%

## CC1(C)CCC2(CCC3C4CCc5cc(OS(C)(=O)=O)ccc5C4CCC32C)OC1=O (stereo not drawn) [EM-1365-CS]
Table 4′, E^−6
  % Inhibition Estrogen Receptor E^−6: 4%
Table 4′, E^−8
  % Inhibition Estrogen Receptor E^−8: 2%

## CC1(C)CC[C@@]2(CCC3C4CCc5cc(F)ccc5C4CC[C@@]32C)OC1=O (stereo partly drawn) [EM-1157-CS]
Table 4′, E^−6
  % Inhibition Estrogen Receptor E^−6: 0%
Table 4′, E^−8
  % Inhibition Estrogen Receptor E^−8: 0%

## CC1(C)CC[C@@]2(CCC3C4CCc5cc(C(=O)O)ccc5C4CC[C@@]32C)OC1=O (stereo partly drawn) [EM-1401, 3-Carboxy-1,3,5(10)-estratrien-17(R)-spiro-2′-(5′,5′-dimethyl-6′-oxo)tetrahydropyran]
Table 4′, E^−6
  % Inhibition Estrogen Receptor E^−6: 2%
Table 4′, E^−8
  % Inhibition Estrogen Receptor E^−8: 5%

## CC1(C)CCC2(CCC3C4CCc5cc(O)c([N+](=O)[O-])cc5C4CCC32C)OC1=O (stereo not drawn) [EM-1125-CS]
Table 4′, E^−6
  % Inhibition Estrogen Receptor E^−6: 2%
Table 4′, E^−8
  % Inhibition Estrogen Receptor E^−8: 2%

## CCC[C@]1(F)CC2C3C=CC4=CC(=O)CC[C@]4(C)C3CC[C@]2(C)C1=O (stereo partly drawn) [EM-1183]
E^−6
  % Inhibition Estrogen Receptor E^−6: 0%
E^−8
  % Inhibition Estrogen Receptor E^−8: 0%

## COc1ccc(CC(=O)O[C@]2(C(C)=O)CCC3C4C=C(C)C5=CC(=O)C=C[C@]5(C)C4CC[C@@]32C)cc1 (stereo partly drawn) [EM-1291]
E^−6
  % Inhibition Estrogen Receptor: 0%
E^−8
  % Inhibition Estrogen Receptor: 0%

## COCCOc1cc2c(cc1C(F)(F)F)[C@H]1CC[C@@]3(C)[C@@H](CC[C@@]34CCC(C)(C)C(=O)O4)[C@@H]1CC2 [EM-1438, 3-(2′-Methoxyethoxy)-2-trifluoromethyl-1,3,5(10)-estratrien-17(R)-spiro-2′-(5′,5′-dimethyl-6′-oxo)tetrahydropyran]
Table 4′, E^−6
  % Inhibition Estrogen Receptor E^−6: 0%
Table 4′, E^−8
  % Inhibition Estrogen Receptor E^−8: 4%

## CCCC(=O)OC1(C(C)=O)CCC2C3C=C(C)C4=CC(=O)CC(C)C4(C)C3CCC21C (stereo not drawn) [CS-245]
E^−6
  % Inhibition Estrogen Receptor: 2%
E^−8
  % Inhibition Estrogen Receptor: 0%

## CC1(C)CCC2(CCC3C4CCc5c(cc(Cl)c(OS(C)(=O)=O)c5Cl)C4CCC32C)OC1=O (stereo not drawn) [EM-1392-CS]
Table 4′, E^−6
  % Inhibition Estrogen Receptor E^−6: 0%
Table 4′, E^−8
  % Inhibition Estrogen Receptor E^−8: 0%

## CC1(C)CCC2(CCC3C4CCc5cc(OCCN6CCCCC6)ccc5C4CCC32C)OC1=O [EM-1390-CS, 3-(N-piperidyl-ethyl)-1,3,5(10)-estratrien-17(R)-spiro-2′-(5′,5′-dimethyl-6′-oxo)-tetrahydropyran]
Table 4′, E^−6
  % Inhibition Estrogen Receptor E^−6: 0%
Table 4′, E^−8
  % Inhibition Estrogen Receptor E^−8: 0%

## CCOc1ccc2c(c1)CCC1C2CC[C@@]2(C)C1CC[C@@]21CCC(C)(C)C(=O)O1 (stereo partly drawn) [EM-1369, 3-Ethoxy-1,3,5(10)-estratrien-17(R)-spiro-2′-(5′,5′-dimethyl-6′-oxo)-tetrahydropyran]
Table 4′, E^−6
  % Inhibition Estrogen Receptor E^−6: 0%
Table 4′, E^−8
  % Inhibition Estrogen Receptor E^−8: 2%

## COCCOc1ccc2c(c1)C(=O)CC1C2CCC2(C)C1CCC21CCC(C)(C)C(=O)O1 (stereo not drawn) [EM-1408-CS]
Table 4′, E^−6
  % Inhibition Estrogen Receptor E^−6: 6%
Table 4′, E^−8
  % Inhibition Estrogen Receptor E^−8: 0%

## COCCOc1cc2c(cc1C#N)C1CC[C@@]3(C)C(CC[C@@]34CCC(C)(C)C(=O)O4)C1CC2 (stereo partly drawn) [EM-1396]
Table 4′, E^−6
  % Inhibition Estrogen Receptor E^−6: 2%
Table 4′, E^−8
  % Inhibition Estrogen Receptor E^−8: 3%

## COCCOc1cc2c(cc1C(=O)OC)C1CC[C@@]3(C)C(CC[C@@]34CCC(C)(C)C(=O)O4)C1CC2 (stereo partly drawn) [EM-1402-CS, 2-Carbomethoxy-3-(2″-methoxyethyloxy)-1,3,5(10)-estratrien 17(R)-spiro-2′-(5′,5′-dimethyl-6′-oxo)tetrahydropyran]
Table 4′, E^−6
  % Inhibition Estrogen Receptor E^−6: 0%
Table 4′, E^−8
  % Inhibition Estrogen Receptor E^−8: 1%

## CCCC(=O)O[C@]1(C)C(=O)CCC2C3C=C(C)C4=CC(=O)CC[C@]4(C)C3CC[C@@]21C (stereo partly drawn) [EM-1078]
E^−6
  % Inhibition Estrogen Receptor E^−6: 0%
E^−8
  % Inhibition Estrogen Receptor E^−8: 5%

## COc1ccc2c(c1)CCC1C2CCC2(C)C1CCC21CCC(C)(C)C(=O)O1 (stereo not drawn) [EM-1370]
Table 4′, E^−6
  % Inhibition Estrogen Receptor E^−6: 2%
Table 4′, E^−8
  % Inhibition Estrogen Receptor E^−8: 0%

## C[C@]12CCC(=O)C=C1C=C[C@@H]1[C@@H]2CC[C@]2(C)C(=O)C3(CC4CC4C3)C[C@@H]12 (stereo partly drawn) [EM-1299, 4,6-Androstadien-3,17-dione-16-spirobicyclo[3′.1′.0′]-hexane]
E^−6
  % Inhibition Estrogen Receptor E^−6: 3%
E^−8
  % Inhibition Estrogen Receptor E^−8: 3%

## COc1ccc2c(c1)C(=O)CC1C2CC[C@@]2(C)C1CC[C@@]21CCC(C)(C)C(=O)O1 (stereo partly drawn) [EM-1394]
Table 4′, E^−6
  % Inhibition Estrogen Receptor E^−6: 8%
Table 4′, E^−8
  % Inhibition Estrogen Receptor E^−8: 4%

## CN(C)CCOc1ccc2c(c1)CCC1C2CCC2(C)C1CCC21CCC(C)(C)C(=O)O1 (stereo not drawn) [EM-1389-CS]
Table 4′, E^−6
  % Inhibition Estrogen Receptor E^−6: 0%
Table 4′, E^−8
  % Inhibition Estrogen Receptor E^−8: 0%

## COc1c(Br)cc2c(c1Br)CCC1C2CCC2(C)C1CCC21CCC(C)(C)C(=O)O1 (stereo not drawn) [EM-1385-CS]
Table 4′, E^−6
  % Inhibition Estrogen Receptor E^−6: 4%
Table 4′, E^−8
  % Inhibition Estrogen Receptor E^−8: 2%

## CC1CCC2(CCC3C4CCc5ccccc5C4CCC32C)OC1=O (stereo not drawn) [EM-1025]
Table 4′, E^−6
  % Inhibition Estrogen Receptor E^−6: 4%
Table 4′, E^−8
  % Inhibition Estrogen Receptor E^−8: 1%

## CN(C)C(=O)c1ccc2c(c1)CCC1C2CCC2(C)C1CCC21CCC(C)(C)C(=O)O1 (stereo not drawn) [EM-1403]
Table 4′, E^−6
  % Inhibition Estrogen Receptor E^−6: 0%
Table 4′, E^−8
  % Inhibition Estrogen Receptor E^−8: 0%

## CSCCOc1ccc2c(c1)CCC1C2CCC2(C)C1CCC21CCCC(=O)O1 [CS-242, 3-Methylthioethyloxy-1,3,5(10)-estratrien-17(R)-spiro-2′-(6′-oxo) Tetrahydropyran]
Table 4′, E^−6
  % Inhibition Estrogen Receptor E^−6: 0%
Table 4′, E^−8
  % Inhibition Estrogen Receptor E^−8: 0%

## COCCOc1cc2c(cc1Cl)C1CCC3(C)C(CCC34CCC(C)(C)C(=O)O4)C1CC2 (stereo not drawn) [EM-1371-CS]
Table 4′, E^−6
  % Inhibition Estrogen Receptor E^−6: 1%
Table 4′, E^−8
  % Inhibition Estrogen Receptor E^−8: 2%

## CC(=O)[C@@]1(OC(=O)CCCCF)CCC2C3C=C(C)C4=CC(=O)CC[C@]4(C)C3CC[C@@]21C (stereo partly drawn) [EM-1195-CS]
E^−6
  % Inhibition Estrogen Receptor: 0%
E^−8
  % Inhibition Estrogen Receptor: 0%

## COCCOc1ccc2c(c1)CCC1C2CCC2(C)C1CCC21CCC(C)(C)C(=O)O1 [EM-1368-CS, 3-Methoxyethoxy-1,3,5(10)-estratrien-17(R)-spiro-2′-(5′,5′-dimethyl-6′-oxo)-tetrahydropyran]
Table 4′, E^−6
  % Inhibition Estrogen Receptor E^−6: 0%
Table 4′, E^−8
  % Inhibition Estrogen Receptor E^−8: 0%

## CC1CCC2(CCC3C4CCc5cc(O)c([N+](=O)[O-])cc5C4CCC32C)OC1=O [EM-1131, 2-Nitro-1,3,5(10)-estratrien-3-ol-17(R)-spiro-2′-(5′-methyl-6′-oxo)tetrahydropyran]
Table 4′, E^−6
  % Inhibition Estrogen Receptor E^−6: 3%
Table 4′, E^−8
  % Inhibition Estrogen Receptor E^−8: 5%

## CCCCN(C)C(=O)[C@@]1(OC(C)=O)CCC2C3C=C(C)C4=CC(=O)CC[C@]4(C)C3CC[C@@]21C (stereo partly drawn) [EM-1165]
E^−6
  % Inhibition Estrogen Receptor: 0%
E^−8
  % Inhibition Estrogen Receptor: 0%

## CC(C)C[C@@H]1CC2C3C=CC4=CC(=O)CC[C@]4(C)C3CC[C@]2(C)C1=O (stereo partly drawn) [EM-1273-CS]
E^−6
  % Inhibition Estrogen Receptor E^−6: 0%
E^−8
  % Inhibition Estrogen Receptor E^−8: 0%

## CC12CCC3c4ccc(F)cc4CCC3C1CCC21CCCC(=O)O1 (stereo not drawn) [EM-1170-CS]
Table 4′, E^−6
  % Inhibition Estrogen Receptor E^−6: 0%
Table 4′, E^−8
  % Inhibition Estrogen Receptor E^−8: 0%

## CC1(C)CC[C@@]2(CCC3C4CCc5cc(C(N)=O)ccc5C4CCC32C)OC1=O (stereo partly drawn) [EM-1404]
Table 4′, E^−6
  % Inhibition Estrogen Receptor E^−6: 0%
Table 4′, E^−8
  % Inhibition Estrogen Receptor E^−8: 0%
